Here are results for one compound from BindingDB's records for patent US8604046 (Sanofi, 2013).

For this assay, the target named is Histamine H3 receptor (Macaca mulatta, UniProt G7N499). Briefly: Radioligand Binding Assay. The text has this: The compounds of this invention have been demonstrated to displace [3H]- methylhistamine radioligand binding to mammalian cell membranes expressing rhesus (Macacca Mulatta) H3 receptor. Additionally, the compounds of this invention have been demonstrated by GTPγS radioligand binding assay to inhibit rhesus H3 constitutive functional activity in cell membranes.
Sequence of Histamine H3 receptor (G7N499 whole entry): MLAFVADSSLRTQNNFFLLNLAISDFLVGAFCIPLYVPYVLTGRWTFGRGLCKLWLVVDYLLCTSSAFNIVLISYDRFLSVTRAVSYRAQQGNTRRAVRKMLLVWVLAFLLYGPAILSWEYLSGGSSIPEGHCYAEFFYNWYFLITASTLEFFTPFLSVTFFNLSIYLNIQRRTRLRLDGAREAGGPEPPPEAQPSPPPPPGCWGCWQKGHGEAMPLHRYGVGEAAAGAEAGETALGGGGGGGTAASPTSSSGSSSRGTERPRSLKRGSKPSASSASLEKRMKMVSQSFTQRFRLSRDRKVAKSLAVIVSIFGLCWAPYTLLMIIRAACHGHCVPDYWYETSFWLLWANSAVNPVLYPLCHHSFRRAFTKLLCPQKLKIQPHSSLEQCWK

`C[C@H]1CCCN1C1CCN(c2ccc(N3CCC4(CCN(C(=O)OC(C)(C)C)CC4)C3=O)c(F)c2)CC1` [US8604046, 79] had a Ki of 0.3 nM.
